Source: article PMC7738856, “Inter and intra-tumor somatostatin receptor 2 heterogeneity influences peptide receptor radionuclide therapy response” (Theranostics, 2021)

What was measured:
NCI-H69 tumors [1] = test: Tumor growth and survival, NCI-H69 xenografts; format: in vivo, BALB-c/nude mice; details: n = 8
Method: (§1) Animal experiments were approved by the Animal Welfare Committee of the Erasmus MC and were conducted in accordance with European guidelines. Animal experiments included a time series for analyses of radiobiological parameters in NCI-H69 xenografts and survival cohorts with NCI-H69 or CA20948 xenografts.
(§2) BALB-c/nude mice were engrafted subcutaneously with 5 x 10^6 NCI-H69 cells in 200 µl HBSS containing 33,3% Matrigel or with 5 x 10^6 CA20948 cells in 200 µl HBSS. Mice with NCI-H69 tumors (n = 8) were injected when tumor volumes reached 697 ± 256 mm^3 and mice with CA20948 tumors (n = 9) when tumor reached 318 ± 216 mm^3. Both groups were compared to vehicle injected counterparts (n = 8 and n = 6, respectively). Tumor volumes were measured three times per week p.i. Mice were sacrificed when tumor volumes reached the humane endpoint of 2000 mm^3. Tumors were fixed in formalin for 1 day at RT and stored in 70% ethanol until they were embedded in paraffin.

NCI-H69 tumors [2] = test: 53BP1 and γH2AX foci (immunofluorescence) in tumor sections; format: in vivo, BALB-c/nude mice; details: 2 days p.i.
Method: BALB-c/nude mice were engrafted subcutaneously with 5 x 10^6 NCI-H69 cells in 200 µl Hanks Balanced Salt Solution (HBSS) (Gibco, 14065056) containing 33,3% Matrigel (Corning, 354248). […] Organs were put in a gamma-counter for measurement of radioactive uptake and then fixed in formalin for 1 day at RT and stored in 70% ethanol until they were embedded in paraffin. Uninjected animals were used as control (n = 4). […] Secondary antibodies used are donkey-anti-rabbit IgG Alexa Fluor 594 (Thermo Fisher, A-11078; 1:500) and donkey-anti-mouse IgG Alexa Fluor 488 (Thermo Fisher; A-11005; 1:500). For immunohistochemical stainings (IHC) Ki-67 (Abcam, ab15580; 1:200) was used. Here, the secondary antibody used is Peroxidase donkey-anti-rabbit IgG (Jackson Immunoresearch, 711-035-152; 1:2000). Cells were IF stained as previously described. Briefly, tissue sections were deparaffinized as described above. Then antigen retrieval was performed by boiling slides for 20 minutes in pH 6 (for cytoplasmic antigens) or pH 9 (for nuclear antigens) antigen retrieval buffer (DAKO) and cooling down to RT. Tissues were permeabilized with PBS+0.5% Triton (PBS(T)) at RT and blocked with 3% BSA in PBS(T) at RT. Sections were incubated with primary antibodies overnight at 4 °C in block buffer and with secondary antibodies for 60 minutes at RT. Mounting was done using Vectashield containing DAPI (Vector labs, H-1200). 53BP1 and γH2AX focus formation was imaged with a Leica SP5 confocal microscope (Leica) using Z-stack acquisition. For tile-scan analyses a LSM700 confocal microscope (Zeiss) was used. Tiles were stitched, thresholded and quantified using ImageJ. ImageJ was utilized to apply the same local threshold (default for DAPI, MaxEntropy for SST2) to all images in order to segment nuclei or quantify DAPI signal and quantify IF signal. Foci were quantified using the Find Maxima function.

[3] = system: CA20948 and NCI-H69 cells; test: In vitro uptake of radioactivity (γ-counts) in cells; format: cell-based; details: 1 MBq/mL, 4 h incubation, n = 3 experiments
Method: NCI-H69 cells (ATCC) were cultured in Rosewell Park Medium Institute […] medium (RPMI-1638) (Sigma-Aldrich) supplemented with penicillin (50 units/mL), streptomycin (50 µg/mL) (Pen/Strep) and 10% fetal calf serum (FCS). CA20948 [14] cells were cultured in Dulbecco's Modified Eagle's Medium (DMEM) (Gibco) supplemented with Pen/Strep and 10% FCS. Cells were cultured at 37 °C and 5% CO2.
NCI-H69 cells were spun down on a glass slide using a cytospin centrifuge (Rotofix 32A, Hettich) for 6 minutes at 347 g at room temperature (RT). CA20948 cells were washed and fixed on coverslips. Fixation was done using 2% paraformaldehyde (PFA) for 20 minutes at RT and samples were stained according to protocol (see below).
S4. [177Lu]Lu-DO T A -TATE uptake in SST2hi g h and SST2low NCI-H69 cells. (A) lutetium- 177 uptake measured by γ-counts in NCI-H69 and CA20948 cells after 4 hours of incubation (experiment n = 3).
**p < 0.01 (B) Representative IF images of SST2 after [ 177Lu]Lu-DOT A- TATE treatment. Arrows indicate internalization and accumulation of SST 2.
S5. Additional foci quantifications in SST2hi g h and SST2low cells. γH2AX foci quantification in SST2high and SST 2lo w NC I -H69 cells 2 days after [177Lu]Lu-DOT A -TATE treatment. Error bars indicate […]

CA20948 tumors = test: Tumor growth and survival, CA20948 xenografts; format: in vivo, BALB-c/nude mice; details: treated CA20948 bearing mice, 30 MBq, n = 9
Method: as §1, §2

NCI-H69 tumors [4] = test: TUNEL assay on tumor sections; format: in vivo, BALB-c/nude mice; details: 30 MBq, n = 4; for TUNEL positive areas (average): 25 fields of view per tumor
Method: BALB-c/nude mice were engrafted subcutaneously with 5 x 10^6 NCI-H69 cells in 200 µl Hanks Balanced Salt Solution (HBSS) (Gibco, 14065056) containing 33,3% Matrigel (Corning, 354248). […] Organs were put in a gamma-counter for measurement of radioactive uptake and then fixed in formalin for 1 day at RT and stored in 70% ethanol until they were embedded in paraffin. Uninjected animals were used as control (n = 4). Tissue sections of 4 µm were deparaffinized and rehydrated. TUNEL assay was performed using the In Situ Cell Death Detection Kit, Fluorescein (Roche, 11684795910) according to manufacturer's instructions. 53BP1 and γH2AX focus formation was imaged with a Leica SP5 confocal microscope (Leica) using Z-stack acquisition. For tile-scan analyses a LSM700 confocal microscope (Zeiss) was used. Tiles were stitched, thresholded and quantified using ImageJ.

NCI-H69 cells = test: 53BP1 and γH2AX foci in cells after in vitro treatment; format: cell-based
Method: NCI-H69 cells (ATCC) were cultured in Rosewell Park Medium Institute […] medium (RPMI-1638) (Sigma-Aldrich) supplemented with penicillin (50 units/mL), streptomycin (50 µg/mL) (Pen/Strep) and 10% fetal calf serum (FCS). CA20948 [14] cells were cultured in Dulbecco's Modified Eagle's Medium (DMEM) (Gibco) supplemented with Pen/Strep and 10% FCS. Cells were cultured at 37 °C and 5% CO2. […] NCI-H69 cells were spun down on a glass slide using a cytospin centrifuge (Rotofix 32A, Hettich) for 6 minutes at 347 g at room temperature (RT). CA20948 cells were washed and fixed on coverslips. Fixation was done using 2% paraformaldehyde (PFA) for 20 minutes at RT and samples were stained according to protocol (see below). Cells were IF stained as previously described. Briefly, tissue sections were deparaffinized as described above. Then antigen retrieval was performed by boiling slides for 20 minutes in pH 6 (for cytoplasmic antigens) or pH 9 (for nuclear antigens) antigen retrieval buffer (DAKO) and cooling down to RT. […] Tiles were stitched, thresholded and quantified using ImageJ. ImageJ was utilized to apply the same local threshold (default for DAPI, MaxEntropy for SST2) to all images in order to segment nuclei or quantify DAPI signal and quantify IF signal. Foci were quantified using the Find Maxima function.

NCl-H69 xenografted mice = system: NCl-H69 xenografted mice; set-up: species or system BALB-c/nude mice; details: mouse, in vivo, iv
Method: BALB-c/nude mice were engrafted subcutaneously with 5 x 10^6 NCI-H69 cells in 200 µl Hanks Balanced Salt Solution (HBSS) (Gibco, 14065056) containing 33,3% Matrigel (Corning, 354248). […] Mice were sacrificed by cervical dislocation and analyzed at 1 h, 1, 2, 3, 4, 5, 7, 9, 11 and 14 days post injection (p.i.). Organs were put in a gamma-counter for measurement of radioactive uptake and then fixed in formalin for 1 day at RT and stored in 70% ethanol until they were embedded in paraffin. Uninjected animals were used as control (n = 4).
The biodistribution data were analyzed to determine the kinetics of the activity in organs and tumors. The measured activity data as a function of time were fitted with single or double exponential curves using the least-square regression method with Graphpad Prism version 5 (graphpad.com). Decisions on to use a single or a double exponential curve was based on the (corrected) Akaike's information criterion. The time-activity curves were integrated over time to determine the time-integrated activity coefficients after folding in the lutetium-177 decay function. Absorbed doses in all organs and in the tumor were calculated by using the MIRD equation with the lutetium-177 S-values for a 22 g mouse Moby phantom, kindly provided by Dr Erik Larsson.

NCl-H69 tumors = test: Ki-67 immunohistochemistry of tumor sections; format: in vivo, BALB-c/nude mice
Method: BALB-c/nude mice were engrafted subcutaneously with 5 x 10^6 NCI-H69 cells in 200 μl Hanks Balanced Salt Solution (HBSS) (Gibco, 14065056) containing 33,3% Matrigel (Corning, 354248). […] Organs were put in a gamma-counter for measurement of radioactive uptake and then fixed in formalin for 1 day at RT and stored in 70% ethanol until they were embedded in paraffin. Uninjected animals were used as control (n = 4). […] Secondary antibodies used are donkey-anti-rabbit IgG Alexa Fluor 594 (Thermo Fisher, A-11078; 1:500) and donkey-anti-mouse IgG Alexa Fluor 488 (Thermo Fisher; A-11005; 1:500). For immunohistochemical stainings (IHC) Ki-67 (Abcam, ab15580; 1:200) was used. Here, the secondary antibody used is Peroxidase donkey-anti-rabbit IgG (Jackson Immunoresearch, 711-035-152; 1:2000). Tissue sections of 4 μm were deparaffinized and rehydrated. Samples were then incubated in 3% H2O2 (Honeywell, 95299) in methanol (Honeywell, 32213-2.5l) for 20 minutes at RT. Slides were washed with tap water and boiled in pH 6 Antigen Retrieval buffer for 20 minutes. Slides were incubated in blocking solution (PBS 5%BSA), following with the primary antibody in blocking solution overnight at 4 °C and with the secondary antibody in blocking solution for 90 minutes at RT. […] Quantification was performed in ImageJ by using particle analysis after.

SMILES: C[C@@H](O)[C@H](NC(=O)[C@@H]1CSSC[C@H](NC(=O)[C@@H](Cc2ccccc2)NC(=O)CN2CCN(CC(=O)O)CCN(CC(=O)O)CCN(CC(=O)O)CC2)C(=O)N[C@@H](Cc2ccc(O)cc2)C(=O)N[C@H](Cc2c[nH]c3ccccc23)C(=O)N[C@@H](CCCCN)C(=O)N[C@@H]([C@@H](C)O)C(=O)N1)C(=O)O [[^177Lu]Lu-DOTA-TATE, [^177Lu]Lu-DOTA-[Tyr^3]octreotate, metal not drawn]
- tumor volume as % of the starting volume (NCI-H69 tumors [1]; 14 days p.i., then regrowth, 30 MBq single injection): 71%
- median survival (NCI-H69 tumors [1]; treated NCI-H69 bearing mice, 30 MBq): 34 days
- γH2AX foci in SST2 high cells, treated versus non-treated SST2 high regions (NCI-H69 tumors [2]; n = 4): significant increase
- γH2AX foci in SST2 high versus SST2 low cells in tumors from treated mice (NCI-H69 tumors [2]; n = 4): significantly higher number
- γH2AX foci in SST2 low cells, treated versus non-treated mice (NCI-H69 tumors [2]; n = 4): no significant increase
- increase in the number of γH2AX foci (NCI-H69 tumors [2]; versus NT controls): 5 fold
- uptake of radioactivity in CA20948 compared to NCI-H69 cells [3]: 3 fold
- median survival (CA20948 tumors): 54 days
- TUNEL positive areas (average) (NCI-H69 tumors [4]; 4 days p.i.): 50%
- TUNEL positive areas (average) (NCI-H69 tumors [4]; 5 days p.i.): 47%
- fraction of TUNEL positive cells (average) (NCI-H69 tumors [4]; 14 days after treatment): 26%
- level of 53BP1 and γH2AX foci per cell versus non-treated cells (NCI-H69 cells; 1 day post treatment, 1 MBq/mL for 4 h at 37 °C): significant increase
- γH2AX foci in SST2 high versus SST2 low NCI-H69 cells in vitro (NCI-H69 cells; 2 days after incubation, 1 MBq/mL for 4 h): significant higher number
- absorbed dose, kidney (NCl-H69 xenografted mice): 3.5 ± 0.12 Gy
- absorbed dose, other organs (NCl-H69 xenografted mice): 0.22-1.48 Gy
- absorbed dose, tumor (NCl-H69 xenografted mice): 10.08 ± 0.35 Gy
- Ki-67 positive cells (NCl-H69 tumors; 2 days after treatment, significantly increased): 74.13%
- Ki-67 positive (cycling) cells in non-apoptotic regions (NCl-H69 tumors; all samples regardless of therapy, except 2 days after treatment): 60.96 ± 5.32%
